Key:
human TLR7 [1] = molecular target: T1, human TLR7 (Homo sapiens, UniProt Q9NYK1); assay: TLR7 activation in HEK293 cells (NF-kB-luc luciferase reporter, H-TLR7/H-vector); assay type: cell-based; conditions: final IRM concentration 10 μM, 16 hours, normalized to the DMSO without compound control
T1 construct: expressed in transfected cells; host or cells: Namalwa cells (ATCC CRL-1432), pCI-neo vector, electroporated, G418 selected, with pIFN-α1-luc reporter
T1 sequence (Q9NYK1 27-1049): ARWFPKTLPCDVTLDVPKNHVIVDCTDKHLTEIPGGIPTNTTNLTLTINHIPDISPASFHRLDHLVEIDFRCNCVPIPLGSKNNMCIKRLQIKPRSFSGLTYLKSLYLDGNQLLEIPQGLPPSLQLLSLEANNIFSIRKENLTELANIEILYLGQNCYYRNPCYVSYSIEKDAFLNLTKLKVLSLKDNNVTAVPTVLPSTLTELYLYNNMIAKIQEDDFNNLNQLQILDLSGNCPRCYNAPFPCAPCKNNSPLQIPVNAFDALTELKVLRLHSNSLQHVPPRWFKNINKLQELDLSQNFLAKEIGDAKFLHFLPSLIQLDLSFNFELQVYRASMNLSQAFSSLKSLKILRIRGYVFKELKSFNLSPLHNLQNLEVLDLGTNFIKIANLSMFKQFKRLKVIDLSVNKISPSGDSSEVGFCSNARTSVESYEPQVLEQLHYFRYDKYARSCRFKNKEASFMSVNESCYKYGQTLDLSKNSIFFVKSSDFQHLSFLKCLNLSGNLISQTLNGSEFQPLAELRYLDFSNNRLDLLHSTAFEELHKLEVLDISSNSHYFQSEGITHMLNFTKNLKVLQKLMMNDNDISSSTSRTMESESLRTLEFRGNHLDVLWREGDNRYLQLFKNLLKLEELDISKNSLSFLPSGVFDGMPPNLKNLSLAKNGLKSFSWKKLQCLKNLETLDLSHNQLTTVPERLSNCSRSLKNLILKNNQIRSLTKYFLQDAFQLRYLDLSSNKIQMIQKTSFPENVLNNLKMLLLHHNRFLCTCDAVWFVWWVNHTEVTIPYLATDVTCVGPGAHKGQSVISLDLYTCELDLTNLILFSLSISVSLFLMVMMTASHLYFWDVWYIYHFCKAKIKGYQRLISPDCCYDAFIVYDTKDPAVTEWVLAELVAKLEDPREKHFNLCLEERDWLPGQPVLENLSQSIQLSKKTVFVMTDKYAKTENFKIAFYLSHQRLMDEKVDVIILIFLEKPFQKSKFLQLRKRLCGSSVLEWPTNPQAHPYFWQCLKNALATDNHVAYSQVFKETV
Experimental: (§1) In one embodiment, exemplified in Example 1, selective modulation of TLR7-mediated NF-κB activation and TLR7-mediated IFN-α1 induction were assayed. NF-κB activation was measured in genetically modified HEK293 cells (H-TLR7) by detecting TLR7-mediated NF-κB-dependent transcription of a luciferase reporter. IFN-α1 induction was measured in genetically modified Namalwa cells (N-TLR7) by detecting TLR-mediated IFN-α1-induced transcription of a luciferase reporter. Results are shown in Table 2 and are expressed as the fold increase in TLR7-mediated luciferase signal—(H-TLR7/H-vector) and (N-TLR7/N-vector), respectively—normalized to a control in which the cells were treated with vehicle that contained no IRM compound. In this assay, a compound was considered to induce the TLR7-mediated cellular activity if the compound generated at least a two-fold increase in the luciferase signal compared to the vector control.
HEK293 medium was prepared from 90% Minimum Essential Medium (MEM) with 2 mM L-glutamine and Earle's Balanced Salt Solution (Invitrogen Corp., Rockville, Md.) adjusted to contain 1.5 g/L sodium bicarbonate, 0.1 mM non-essential amino acids, and 1.0 mM sodium pyruvate; 10% heat-inactivated fetal calf serum. HEK293 cells were cultured by incubating cells in HEK293 medium overnight at 37° C, 8% CO2.
Twenty-four hours before transfection, HEK293 cells were adhered to a 10 cm dish (Corning 430167, Corning Inc., Corning, N.Y.) at 37° C., 8% CO2. The cells were co-transfected with (1) pIRES (BD Biosciences Clontech, Palo Alto, Calif.) either (a) unmodified (H-vector), or (b) containing an expressible human TLR7 gene (H-TLR7), and (2) NF-kB-luc reporter (Stratagene, La Jolla, Calif.) in a 10:1 ratio with Fugene 6 transfection reagent (Roche Diagnostics Corp., Indianapolis, Ind.) following the manufacturer's instructions. The plates were incubated for 24 hours following transfection and then selected in G-418 (400 μg/mL) for two weeks. The G-418-resistant cells containing either the expressible TLR7 gene or the empty vector were expanded in HEK293 medium supplemented with G-418 for stimulation experiments.
The transfected cells were plated in white opaque 96 well plates (Costar 3917, Corning Inc., Corning, N.Y.) at a concentration of 5×10^4 cells per well in 100 μL of HEK293 media and incubated at 37° C., 8% CO2 for 4 hours. The cells were stimulated with 1 μL of IRM compounds at 1 mM in DMSO (final IRM concentration of 10 μM) or 1 μL DMSO as a control. The plates were then incubated an additional 16 hours at 37° C., 5% CO2. The luciferase signal was read using the LucLite kit (Packard Instrument Co., Meriden, Conn.). Luminescence was measured on an LMAX luminometer (Molecular Devices Corp., Sunnyvale, Calif.).
(§2) The data are expressed as fold increase in TLR7-mediated luciferase signal—(H-TLR7/H-vector) and (N-TLR7/N-vector), respectively—normalized to the DMSO without compound control.

human TLR7 [2] = molecular target: T1, human TLR7; assay: TLR7 activation in Namalwa cells (IFN-α1 promoter luciferase reporter, N-TLR7/N-vector); assay type: cell-based; conditions: final IRM concentration 10 μM, 18 hours, normalized to the DMSO without compound control
Experimental: as §1
Unless otherwise indicated, all incubations were performed at 37° C. with 5% CO2 at 98% humidity.
Culture medium was prepared from complete RPMI 1640 medium (BioSource International, Inc., Camarillo, Calif.). Fetal bovine serum (Atlas Biologicals, Inc., Ft. Collins, Colo.) was added to a final concentration of 7.5% (vol/vol); L-glutamine (BioSource International, Inc.) was added to 5 mM; and sodium pyruvate (BioSource International, Inc.) was added to 1 mM.
Namalwa cells were grown by incubation in culture medium overnight. Cells were harvested by centrifugation in a tabletop centrifuge (1200 RPM for 5 minutes), and then resuspended in phosphate buffered sucrose to a concentration of 1.3×10^7 cells/mL.
For each transfection, a 750 μL aliquot of the cell suspension was placed in an electroporation cuvette with 4 mm gaps. Each aliquot received transfection DNA: 10 μg of pGL3-Enhancing vector (Promega Corp., Madison, Wis.) containing the human IFN-α1 promoter cloned into the BglII site (pIFN-α1-luc), and 10 μg of pCI-neo mammalian expression vector (Promega Corp.) either (1) unmodified (N-vector) or (2) containing an expressible human TLR7 gene (N-TLR7). The cell and vector mixtures were incubated at room temperature for 5 minutes. The cells were electroporated using a BioRad Gene Pulser (BioRad Laboratories, Hercules, Calif.) set to at 500 μF capacitance and […], then incubated at room temperature for 5 minutes.
The electroporated cells were suspended in 10 mL of culture medium and incubated overnight. Dead cells and debris were removed after 24 hours using a MACS Dead Cell Removal kit (Miltenyi Biotec, Auburn, Calif.). Cells were resuspended in 10 mL of culture medium and incubated for an additional 24 hours.
Transfected cells were selected by adding G418 (Promega Corp., Madison, Wisc.) to a final concentration of 1 mg/mL and incubating the cells for seven days.
The selected transfected cells were counted and resuspended to a concentration of 1×10^6 cell per mL in culture medium. 100 μl aliquots of cells were placed in the wells of a white-walled, white-bottomed 96-well plate (Corning, Inc. Corning, N.Y.). 1.0 μL of an IRM compound from Table 1 (prepared at 1 mM in 100% DMSO) was added to some cell aliquots so that the final concentration of IRM compound was 10 μM. As a positive control, some cell aliquots were incubated with Sendai virus instead of IRM compound. As a negative control, some cell aliquots were incubated with DMSO without IRM compound. In all cases, the cells were incubated for 18 hours.
The plates were equilibrated to room temperature before 1 volume of reconstituted LucLight Plus (Packard Instruments, Meriden, Conn.) was added to each aliquot of cells. Each well of the plate was read on an LJL Analyst (LJL Biosystems, Inc., Sunnyvale, Calif.) set with a 5 minute dark adapt.
as §2

Row | SMILES | H-TLR7: fold increase in TLR7-mediated luciferase signal (H-TLR7/H-vector), NF-κB-dependent reporter (human TLR7 [1]) [fold] | N-TLR7: fold increase in TLR7-mediated luciferase signal (N-TLR7/N-vector), IFN-α1 promoter reporter (human TLR7 [2]) [fold]
1 | CC(C)Cn1c(CO)nc2c(N)nc3c(c21)CCCC3 [IRM8, 2-hydroxymethyl-1-(2-methylpropyl)-6,7,8,9-tetrahydro-1H-imidazo[4,5-c]quinolin-4-amine] | 0.4 | 3.0
2 | COCCc1nc2c(N)nc3c(c2n1CC(C)(C)NS(C)(=O)=O)CCCC3 [IRM25, N-{2-[4-amino-2-(2-methoxyethyl)-6,7,8,9-tetrahydro-1H-imidazo[4,5-c]quinolin-1-yl]-1,dimethylethyl}methanesulfonamide] | 7.6 | 3.0
3 | COCCc1nc2c(N)nc3ccccc3c2n1CCCCCCCCNC(=O)Nc1ccccc1 [IRM2, N-{8-[4-amino-2-(2-methoxyethyl)-1H-imidazo[4,5-c]quinolin-1-yl]octyl}-N′-phenylurea] | 4.1 | 1.5
4 | CCCCc1nc2c(N)nc3ccccc3c2n1CCCCCS(C)(=O)=O [IRM23, 2-butyl-1-[5-(methylsulfonyl)pentyl]-1H-imidazo[4,5-c]quinolin-4-amine] | 9.4 | 2.8
5 | CCCCc1nc2c(N)nc3ncccc3c2n1CC(C)C [IRM10, 2-butyl-1-(2-methylpropyl)-1H-imidazo[4,5-c][1,8]naphthyridin-4-amine] | 1.1 | 4.4
6 | CCOCc1nc2c(N)nc3ccccc3c2n1CCC(C)C [IRM9, 2-ethoxymethyl-1-(3-methylbutyl)-1H-imidazo[4,5-c]quinolin-4-amine] | 0.7 | 2.6
7 | CCCCc1nc2c(N)nc3cccnc3c2n1CCNC(=O)C(N)CC(C)C (centres unmarked) [IRM11, N^1-[2-(4-amino-2-butyl-1H-imidazo[4,5-c][1,5]naphthyridin-1-yl)ethyl]-2-amino-4-methylpentanamide] | 0.5 | 2.8
8 | CCOCc1nc2c(N)nc3ccccc3c2n1CC(C)C [IRM22, 2-(ethoxymethyl)-1-(2-methylpropyl)-1H-imidazo[4,5-c]quinolin-4-amine] | 5.5 | 2.2
9 | COCCc1nc2c(N)nc3ccccc3c2n1CCCNS(=O)(=O)c1ccccc1 [IRM7, N-{3-[4-amino-2-(2-methoxyethyl)-1H-imidazo[4,5-c]-1-yl]propyl}benzenesulfonamide] | 4.7 | 1.6
10 | Cc1nc2c(N)nc3ccccc3c2n1CCOCCNS(C)(=O)=O [IRM19, N-{2-[2-(4-amino-2-methyl-1H-imidazo[4,5-c]-1-yl)ethoxy]ethyl}methanesulfonamide] | 0.9 | 3.3
11 | Cc1nc2c(N)nc3ccccc3c2n1CCOCCNC(=O)c1ccccc1 [IRM17, N-{2-[2-(4-amino-2-methyl-1H-imidazo[4,5-c]quinolin-1-yl)ethoxy]ethyl}benzamide] | 0.4 | 3.1
12 | CCCCCc1nc2c(N)nc3ccccc3c2n1CCCCNS(C)(=O)=O [IRM14, N-[4-(4-amino-2-pentyl-1H-imidazo[4,5-c]quinolin-1-yl)butyl]methanesulfonamide] | 0.9 | 3.3
13 | Cc1nc2c(N)nc3ccccc3c2n1CCCNC(=O)C1CCCC1 [IRM16, N-[3-(4-amino-2-methyl-1H-imidazo[4,5-c]quinolin-1-yl)propyl]cyclopentanecarboxamide] | 0.9 | 2.8
